Reference: ChEMBL document CHEMBL3085700 (J Med Chem, 2013)
The source made the active and inactive calls. The calls are words filed in the database; no cut-off is given here.

Assays:
[1] = target: Cannabinoid receptor 1 (Rattus norvegicus) (UniProt P20272); test: Antagonist activity at CB1 receptor in rat cerebellar membranes assessed as HU210-evoked response up to 10 uM incubated for 10 mins prior to testing by [35S]GTPgammaS binding assay; type: functional, cell membranes; conditions: Cerebellum, Membrane
Chain of Cannabinoid receptor 1 (Rattus norvegicus) (P20272 whole entry): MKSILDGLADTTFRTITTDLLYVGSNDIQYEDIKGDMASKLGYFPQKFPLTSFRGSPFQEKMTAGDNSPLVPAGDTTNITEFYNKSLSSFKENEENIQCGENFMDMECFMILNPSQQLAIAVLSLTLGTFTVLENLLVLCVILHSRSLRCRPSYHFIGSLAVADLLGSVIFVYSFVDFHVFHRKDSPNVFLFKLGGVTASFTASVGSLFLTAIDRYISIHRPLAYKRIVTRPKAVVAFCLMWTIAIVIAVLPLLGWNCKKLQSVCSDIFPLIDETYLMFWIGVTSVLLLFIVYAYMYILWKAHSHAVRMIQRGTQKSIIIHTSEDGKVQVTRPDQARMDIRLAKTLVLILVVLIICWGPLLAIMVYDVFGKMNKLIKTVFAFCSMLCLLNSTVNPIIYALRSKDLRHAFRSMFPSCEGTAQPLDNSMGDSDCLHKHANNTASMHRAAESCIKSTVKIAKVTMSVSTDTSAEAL

[2] = target: T1, Fatty-acid amide hydrolase 1 (Mus musculus) (UniProt O08914); test: Inhibition of TAMRA-FP-labeled FAAH in mouse brain membrane after 1 hr by fluorescent gel scanning assay; type: cell membranes
T1 sequence (whole entry): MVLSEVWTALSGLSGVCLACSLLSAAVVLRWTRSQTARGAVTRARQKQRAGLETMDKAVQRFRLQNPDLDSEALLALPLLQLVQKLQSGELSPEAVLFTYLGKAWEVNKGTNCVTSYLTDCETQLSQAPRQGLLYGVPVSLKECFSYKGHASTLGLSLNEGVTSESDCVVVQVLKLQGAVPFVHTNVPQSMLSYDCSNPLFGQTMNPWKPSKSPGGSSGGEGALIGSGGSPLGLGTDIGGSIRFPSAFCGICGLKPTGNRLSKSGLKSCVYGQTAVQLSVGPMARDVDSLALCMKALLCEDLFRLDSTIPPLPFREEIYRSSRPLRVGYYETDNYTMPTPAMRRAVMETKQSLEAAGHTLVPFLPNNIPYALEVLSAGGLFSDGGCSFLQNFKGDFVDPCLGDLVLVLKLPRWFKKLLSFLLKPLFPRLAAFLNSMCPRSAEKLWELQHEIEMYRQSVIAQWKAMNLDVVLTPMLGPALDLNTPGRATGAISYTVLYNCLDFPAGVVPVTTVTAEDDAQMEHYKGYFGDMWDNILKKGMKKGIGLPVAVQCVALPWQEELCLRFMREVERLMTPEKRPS

[3] = target: T2, Monoacylglycerol lipase ABHD6 (Mus musculus) (UniProt Q8R2Y0); test: Inhibition of TAMRA-FP-labeled ABHD6 in mouse brain membrane at 10 uM after 1 hr by fluorescent gel scanning assay; type: cell membranes
T2 sequence (whole entry): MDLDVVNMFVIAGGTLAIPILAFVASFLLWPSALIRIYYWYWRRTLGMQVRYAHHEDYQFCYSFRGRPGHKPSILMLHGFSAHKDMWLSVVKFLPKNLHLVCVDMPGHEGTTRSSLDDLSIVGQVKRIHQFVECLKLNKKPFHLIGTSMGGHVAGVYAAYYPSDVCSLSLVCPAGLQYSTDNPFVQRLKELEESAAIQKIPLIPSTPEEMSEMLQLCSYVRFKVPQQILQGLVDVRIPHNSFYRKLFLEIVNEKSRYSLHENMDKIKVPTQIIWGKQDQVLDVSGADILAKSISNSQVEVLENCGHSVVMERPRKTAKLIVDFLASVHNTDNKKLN

[4] = target: T3, Monoglyceride lipase (Homo sapiens) (UniProt Q99685); test: Inhibition of human recombinant MAGL overexpressed in HEK cells using 2-AG as substrate at 10 uM preincubated for 10 mins before substrate addition measured after 10 mins by HPLC analysis relative to control; type: cell-based; conditions: HEK293
T3 sequence (whole entry): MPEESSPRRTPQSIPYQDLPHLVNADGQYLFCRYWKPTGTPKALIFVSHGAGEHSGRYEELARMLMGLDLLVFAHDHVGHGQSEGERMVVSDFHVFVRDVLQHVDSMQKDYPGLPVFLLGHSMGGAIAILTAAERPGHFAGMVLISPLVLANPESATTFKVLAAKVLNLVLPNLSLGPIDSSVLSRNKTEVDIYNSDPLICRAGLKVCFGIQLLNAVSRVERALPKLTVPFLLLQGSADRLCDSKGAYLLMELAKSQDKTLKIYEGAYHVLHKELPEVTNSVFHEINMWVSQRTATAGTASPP

[5] = target: T4, Monoglyceride lipase (Mus musculus) (UniProt O35678); test: Inhibition of TAMRA-FP-labeled MAGL in mouse brain membrane at 10 uM after 1 hr by fluorescent gel scanning assay; type: cell membranes
T4 sequence (whole entry): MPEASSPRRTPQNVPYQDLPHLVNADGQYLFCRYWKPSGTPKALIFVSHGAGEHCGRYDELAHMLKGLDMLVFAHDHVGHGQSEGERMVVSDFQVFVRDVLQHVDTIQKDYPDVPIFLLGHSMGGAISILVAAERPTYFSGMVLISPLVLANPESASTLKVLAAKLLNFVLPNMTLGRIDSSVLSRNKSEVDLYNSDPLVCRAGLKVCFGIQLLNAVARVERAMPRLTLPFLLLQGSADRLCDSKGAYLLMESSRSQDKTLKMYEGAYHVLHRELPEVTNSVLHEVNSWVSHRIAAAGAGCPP

[6] = target: T5, Fatty-acid amide hydrolase 1 (Homo sapiens) (UniProt O00519); test: Inhibition of human recombinant FAAH overexpressed in African green monkey COS7 cells using [3H]-anandamide as substrate at 10 to 300 uM preincubated for 10 to 60 mins by liquid scintillation counting analysis; type: cell-based; conditions: COS-7
T5 sequence (whole entry): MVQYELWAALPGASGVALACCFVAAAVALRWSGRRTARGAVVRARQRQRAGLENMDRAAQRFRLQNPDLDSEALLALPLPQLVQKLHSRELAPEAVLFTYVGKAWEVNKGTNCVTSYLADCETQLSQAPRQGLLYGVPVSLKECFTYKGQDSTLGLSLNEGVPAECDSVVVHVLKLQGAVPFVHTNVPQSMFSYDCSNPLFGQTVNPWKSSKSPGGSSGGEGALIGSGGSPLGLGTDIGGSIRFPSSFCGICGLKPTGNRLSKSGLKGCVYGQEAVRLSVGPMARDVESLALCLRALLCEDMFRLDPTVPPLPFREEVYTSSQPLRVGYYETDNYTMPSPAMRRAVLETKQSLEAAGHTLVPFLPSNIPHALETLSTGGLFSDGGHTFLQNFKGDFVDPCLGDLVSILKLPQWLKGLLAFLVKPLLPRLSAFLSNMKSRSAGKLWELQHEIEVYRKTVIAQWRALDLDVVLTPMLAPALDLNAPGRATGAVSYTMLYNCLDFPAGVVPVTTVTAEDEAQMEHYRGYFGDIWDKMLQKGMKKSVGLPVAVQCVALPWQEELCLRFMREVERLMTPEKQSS

[7] = target: T5, Fatty-acid amide hydrolase 1 (Homo sapiens); test: Noncompetitive inhibition of human recombinant FAAH overexpressed in African green monkey COS7 cells using anandamide as substrate assessed as decrease in Vmax of substrate hydrolysis preincubated for 10 mins before substrate addition measured after 10 mins by HPLC analysis; conditions: COS-7

Activity [1]: inactive
inhibition [2]: Dose-dependent effect
inhibition [3]: inactive
inhibition [4]: 16%
inhibition [5]: inactive
inhibition [6]: Active
inhibition [7]: Dose-dependent effect
Structure (SMILES): COc1nn([C@@H](C)c2ccc(CC(C)C)cc2)c(=O)o1
